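A five-concentration, 48-hour dose response in 96-well plates underlies each endpoint, interpolated linearly between surrounding concentrations. Here, GI50 denotes the concentration required for 50% inhibition of growth.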 Calls of active or inactive are those of the source. Rule as the data show it: active = GI50 up to about 1.1 µM and inactive = higher. Residues, ends and D or L forms follow the SMILES beside them.
Key:
Assay in all cases: NCI tumour cell line growth inhibition, 48 h
A498 = test system: A498
DU-145 = test system: DU-145
HOP-62 = test system: HOP-62
Hs-578T = test system: Hs-578T
M14 = test system: M14
MDA-N = test system: MDA-N
NCI-H226 = test system: NCI-H226
NCI-H23 = test system: NCI-H23
NCI-H460 = test system: NCI-H460
NCI/ADR-RES = test system: NCI/ADR-RES
OVCAR-3 = test system: OVCAR-3
PC-3 = test system: PC-3
SK-MEL-2 = test system: SK-MEL-2
SN12C = test system: SN12C
SR = test system: SR
SW-620 = test system: SW-620
T47D = test system: T47D
HCC 2998 = test system: HCC 2998
EKVX = test system: EKVX
OVCAR-8 = test system: OVCAR-8

Measured: GI50

COc1cc(C=O)cc(/C=N/N=C/c2ccccc2O)c1O
inactive: A498 > 100 µM | DU-145 66.4 µM | HOP-62 30.7 µM | Hs-578T 2.92 µM | M14 15.6 µM | MDA-N 25 µM | NCI-H226 16.6 µM | NCI-H23 23.6 µM | NCI-H460 31.4 µM | NCI/ADR-RES 36 µM | OVCAR-3 25.5 µM | PC-3 12.1 µM | SK-MEL-2 17.3 µM | SN12C 17.6 µM | SR 19.8 µM | SW-620 62.2 µM | T47D 4.71 µM

O=C(Cn1c(C(=O)/C=C/c2ccco2)nc2ccccc21)c1ccc(Cl)cc1
inactive: A498 17.2 µM | DU-145 36.1 µM | HCC 2998 17.1 µM | HOP-62 46.8 µM | Hs-578T 1.29 µM | M14 19.9 µM | MDA-N 17.1 µM | NCI-H226 52.7 µM | NCI-H23 11.9 µM | NCI-H460 12.3 µM | NCI/ADR-RES 11.8 µM | OVCAR-3 31.5 µM | PC-3 15.8 µM | SK-MEL-2 12.3 µM | SN12C 15.2 µM | SR 3.03 µM | SW-620 25.4 µM | T47D 31.6 µM

O=c1n(-c2ccccc2)c(=O)n2n1C1Cc3ccccc3C12 (stereo not drawn)
inactive: A498 > 100 µM | DU-145 > 100 µM | EKVX > 100 µM | HOP-62 > 100 µM | Hs-578T 15 µM | M14 > 100 µM | MDA-N > 100 µM | NCI-H226 > 100 µM | NCI-H23 > 100 µM | NCI-H460 > 100 µM | NCI/ADR-RES > 100 µM | OVCAR-3 > 100 µM | OVCAR-8 > 100 µM | PC-3 > 100 µM | SK-MEL-2 > 100 µM | SN12C > 100 µM | SR > 100 µM | SW-620 > 100 µM | T47D > 100 µM

CC1CN=C(N(C(=O)Nc2ccccc2)c2ccccc2)S1 (stereo not drawn)
inactive: A498 10.6 µM | DU-145 53.2 µM | EKVX 29 µM | HCC 2998 35.9 µM | HOP-62 39.9 µM | Hs-578T 42.5 µM | MDA-N 24.1 µM | NCI-H23 35.4 µM | NCI-H460 30.1 µM | NCI/ADR-RES 22 µM | OVCAR-3 24.9 µM | OVCAR-8 40.3 µM | PC-3 36.6 µM | SK-MEL-2 20.8 µM | SN12C 25.2 µM | SR 27.2 µM | SW-620 41.5 µM | T47D 24.9 µM

C=C1C(=O)OC2CC3(C)CCCC(C)C3=CC12 (stereo not drawn)
inactive: A498 3.72 µM | DU-145 3.67 µM | EKVX 5.3 µM | HCC 2998 3.79 µM | Hs-578T 2.91 µM | M14 3.56 µM | MDA-N 3.18 µM | NCI-H226 13.2 µM | NCI-H23 6.04 µM | NCI-H460 3.03 µM | NCI/ADR-RES 17.6 µM | OVCAR-8 12.8 µM | PC-3 14.8 µM | SK-MEL-2 10.4 µM | SN12C 3.3 µM | SR 2.14 µM | SW-620 2.16 µM | T47D 2.88 µM

CCC(C)C(NC(=O)C1CCCN1)C(=O)NC(C(=O)NCC(=O)NC(CC(N)=O)C(=O)NC(CC(C)C)C(=O)NC(CC(C)C)C(=O)NC(CCCCN)C(N)=O)C(C)C (stereo not drawn) (H-PIVGNLLK-NH2; configuration not given here)
inactive: A498 > 75 µM | DU-145 > 75 µM | EKVX > 75 µM | HOP-62 > 75 µM | Hs-578T > 75 µM | M14 > 75 µM | MDA-N > 75 µM | NCI-H226 > 75 µM | NCI-H23 > 75 µM | NCI/ADR-RES > 75 µM | OVCAR-3 > 75 µM | OVCAR-8 > 75 µM | PC-3 > 75 µM | SK-MEL-2 > 75 µM | SN12C > 75 µM | SR > 75 µM | SW-620 > 75 µM | T47D > 75 µM

— ChEMBL document CHEMBL1201862, “PubChem BioAssay data set” (2004)
